Test results taken from patent US20240066043A1, “PHARMACEUTICAL CO[…] IMPROVED DISSOLUTION AND RAPID ONSET BY TARGETED STOMACH AND MUCOSAL RELEASE” (Xpira Pharmaceuticals Inc., priority 2022, published 2024).
Where two headings read alike, the source gives them in different places.

Key:
[1] = cited from earlier work
[2] = target: T1, neocortical serotonin 5-HT2A receptors (Homo sapiens, UniProt P28223); details: 25 mg oral dose (Madsen et al., 2019); cited from earlier work
T1 construct: host or cells: neocortex in vivo
T1 sequence (P28223 whole entry): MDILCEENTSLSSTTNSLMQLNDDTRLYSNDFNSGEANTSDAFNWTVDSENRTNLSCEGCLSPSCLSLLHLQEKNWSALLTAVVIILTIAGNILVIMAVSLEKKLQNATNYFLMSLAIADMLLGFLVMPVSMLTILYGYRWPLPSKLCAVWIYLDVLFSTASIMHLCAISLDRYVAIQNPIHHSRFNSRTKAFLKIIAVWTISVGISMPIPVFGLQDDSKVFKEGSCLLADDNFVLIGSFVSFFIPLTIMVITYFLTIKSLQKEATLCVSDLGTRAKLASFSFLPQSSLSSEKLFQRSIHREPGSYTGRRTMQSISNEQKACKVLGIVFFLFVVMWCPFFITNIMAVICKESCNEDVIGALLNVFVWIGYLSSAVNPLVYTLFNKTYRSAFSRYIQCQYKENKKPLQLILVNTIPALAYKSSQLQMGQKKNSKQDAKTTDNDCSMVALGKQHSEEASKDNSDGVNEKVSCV

[3] = cited from earlier work; remark: listed apart in the source
[4] = cited from earlier work; remark: listed apart in the source
[5] = Flowability measurements (bulk density, tapped density, Hausner ratio, compressibility index)
[6] = Particle size analysis from SEM micrographs (circle equivalent diameter); type: physicochemical; details: SEM micrograph FIG. 4B, unformulated psilocybin
[7] = cited from earlier work; remark: listed apart in the source
[8] = oral 0.224 mg/kg psilocybin (10 to 20 mg) (Hasler et al., 1997)
[9] = oral psilocybin (Brown et al., 2017)

CN(C)CCc1c[nH]c2cccc(OP(=O)(O)O)c12 [Psilocybin, 3[2-(dimethylamino)ethyl]-1H-indol-4-yl] dihydrogen phosphate]
pharmacokinetics of psilocybin (as psilocin), dose linearity ([1]; dose range 0.3-0.6 mg/kg (Brown et al., 2017; Hasler et al., 2002)): linear
estimated dose-normalized bioavailability of psilocybin ([1]; oral 0.224 mg/kg psilocybin, N=3 (Hasler et al., 1997)): 52.7±20%
bioavailability ([1]; oral psilocybin): ~50%
occupancy of neocortical serotonin 5-HT2A receptors [2]: near-maximal occupancy
peak of psychoactive effects ([3]; after a dose): about two hours
onset of noticeable psychoactive effects ([3]; after an oral dose): within one hour
loss of psychoactive effects ([3]; after the dose): around six hours
solubility ([4]; boiling methanol): 120 parts
solubility ([4]; boiling water): 20 parts
stability ([4]; dark storage at controlled room temperature): stable over extended periods
Bulk density ([5]; USP41-NF36 616): 0.19 g/mL
Tapped density ([5]; USP41-NF36 616): 0.45 g/mL
Compressibility index ([5]; USP41-NF36 1174): 58%
Hausner ratio ([5]; tap density divided by bulk density, USP41-NF36 1174): 2.36
crystal size [6]: ≤ 30 μm

CN(C)CCc1c[nH]c2cccc(O)c12 [psilocin]
time until psilocin detectable in plasma ([1]; after administration of the parent compound psilocybin): ≤ 20 min
time until psilocin appears in plasma ([1]; after oral administration): ≤ 15 min
psilocin half-life ([1]; following oral administration of psilocybin (Brown et al., 2017)): approximately 3±1.1 hours
half-life of psilocin in blood ([1]; in vivo): 2 to 3 h
average blood concentration of the active metabolite psilocin [1, 8]: 8.2 ± 2.8 ng/mL
time of average blood concentration of psilocin [1, 8]: 105 ± 37 min
time of peak psilocin levels [1, 9]: approximately 80 minutes
time psilocin is detectable after administration [1, 9]: up to 24 hours
share of overall clearance of psilocin through renal excretion ([1]; urine over 24 hours after a single dose (Hasler et al., 2002)): less than 4%
time to maximum plasma levels ([7]; oral, rats (Chen et al., 2011)): approximately 90 minutes
total volume of psilocin absorbed from the digestive tract ([7]; psilocybin administered orally to rats (Kalberer et al., 1962)): approximately 50%
